What all share (format): in vivo
In one test the test system is Phaedon brassicae. Nature of the test: Pesticidal activity against Phaedon brassicae, leaf-dipping method. To be noted: counted 24, 48, 72 hours, time not given, read-out: mortality rate, Phaedon brassicae. The method, then:
Cabbage (Daiya) leaves were cut into pieces with a diameter of 5.8 cm, dipped in the pesticide composition where the compound of Synthesis Example 2 was diluted (the solvent=distilled water+acetone 50,000 mg/L+Triton X-100 100 mg/L) for 30 seconds, and sufficiently shade-dried. Then, the shade-dried cabbage leaves were is placed in a petri dish (8.8 cm in diameter) covered with filter paper and repeatedly inoculated 3-5 times with the larvae of Phaedon brassicae, 10 larvae per inoculation. In particular, the Phaedon brassicae larvae used were those which were bred in the Andong National University (Korea) for multiple generations.
After the inoculation, the Phaedon brassicae larvae were stored under the conditions of 16 hours of light and 8 hours of dark, 25±1° C. and 50-60% relative humidity, and the number of live Phaedon brassicae larvae was counted 24, 48, and 72 hours after the inoculation. Thereafter, the larvae mortality rate was calculated in the same manner as in Test Example 1 above.

The next test has as its system Spodoptera litura. The test can be described thus: Pesticidal activity against Spodoptera litura, leaf-dipping method. To be noted: 48 h, read-out: mortality rate, Spodoptera litura.
The test system of test [1] is Frankliniella occidentalis. Nature of the test: Pesticidal activity against Frankliniella occidentalis, spray method. To be noted: 48 h, read-out: mortality rate, Frankliniella occidentalis. The essentials: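 Ten F. occidentalis adults per dish sprayed with compound at 100 ppm in water/acetone 50,000 mg/L/Triton X-100 100 mg/L, then given a soybean cotyledon. Held at 25±1 °C, 50-60% RH, 16:8 h light:dark; live adults counted 48 h after inoculation to give mortality.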

In general, mortality refers to the share of the test organisms that died. Consider `Cc1cc(C2=NOC(c3cc(Cl)cc(C(F)(F)F)c3)(C(F)(F)F)C2)ccc1C(=O)NC(=O)C1CC1` (racemic) [Synthesis Example 2], for which, in the test on Phaedon brassicae, the mortality at 1 ppm was 100%, the mortality at 3 ppm was 100% and the mortality at 10 ppm worked out at 100%. In the test with Spodoptera litura, the mortality at 0.1 ppm is 100%, the mortality at 1 ppm amounted to 100% and the mortality at 10 ppm worked out at 100%. In test [1], the mortality at 1 ppm stood at 100%, the mortality at 5 ppm was determined as 100% and the mortality at 10 ppm was 100%.

Consider `CON=CNC(=O)c1ccc(C2=NOC(c3cc(Cl)cc(Cl)c3)(C(F)(F)F)C2)cc1C` (stereo not drawn) [Comparative Example 1, fluxametamide], for which, in the test with Phaedon brassicae, the mortality at 1 ppm was found to be 100%, the mortality at 3 ppm was 100% and the mortality at 10 ppm came to 100%. Moreover, in the test on Spodoptera litura, the mortality at 0.1 ppm amounted to 90%, the mortality at 1 ppm worked out at 100% and the mortality at 10 ppm came to 100%. Also, in test [1], the mortality at 1 ppm came to 7%, the mortality at 5 ppm was determined as 13% and the mortality at 10 ppm is 50%.

The values above are taken from patent US20250380697A1, “ISOXAZOLINE DERIVATIVE COMPOUND AND INSECTICIDAL COMPOSITION COMPRISING SAME” (KYUNG NONG CORPORATION, priority 2022, published 2025).
